Broadly, the melting point is the temperature, or range, at which the solid turns liquid.

In a melting point compilation (Tetko et al.; mined from patent text by program, amines drawn as free bases though some values may be those of a salt) one finds melting point data, which are given here for 86 compounds.

Each structure is given as a SMILES string.

In the case of `C=CCNC(=O)N1CC(Oc2ccc(C(F)(F)F)cc2Cl)C1`, the melting point was 102 to 104 °C.

`N#CCc1ccc(-c2cn3ccccc3n2)cc1` displayed a melting point of 175 to 177 °C.

As for `CC(C)(C)OC(=O)COc1ccc(NC(=O)OCc2ccccc2)cc1`, the melting point lay in the range of 109 to 110 °C.

Consider `Cc1c(-c2cccn2C)c(N2CC[C@H](N(C)C)C2)c2oc(C3CC3)nc2c1C#N`, for which the melting point lay in the range of 127 to 128 °C.

For `CCc1c(-c2ccc(OCc3ccccc3)cc2)c2c(C(=O)N(C)C)cc3cccc1n32`, the melting point fell in the range of 92 to 95 °C.

`COc1ccc(C=NNc2ccc(S(N)(=O)=O)cc2)cc1` had a melting point of 228 to 231 °C.

For `COc1cc(C(=O)N(C(C)C)C2CCCCC2)ccc1Cn1cccc2nc(C)nc1-2`, the melting point lay within 218 to 221 °C.

Take `Cc1cccc(I)c1C(=O)Nc1ccccc1[N+](=O)[O-]`: the melting point was 115 °C.

`CCc1c(OC)cc(/C=C(\SC)S(C)=O)cc1OC` (stereo unspecified) yielded a melting point of 82 to 83 °C.

With `NC(=O)c1nc(-c2cccc(O)c2)nc2c1[nH]c(=O)n2C1CCc2ccccc21` (stereo unspecified), the melting point lay in the range of 341 to 343 °C.

The compound `CC1=N/C(=C\c2c[nH]c3ncc(Cl)cc23)C(=O)N1C` came in with a melting point of 295 to 300 °C.

`CN(C)S(=O)(=O)NCc1ccc(C(c2cc(F)ccc2F)S(=O)(=O)c2ccc(Cl)cc2)nc1` (stereo unspecified) displayed a melting point of 177 to 178 °C.

`Oc1ccc2c(c1)NCC2` came in with a melting point of 115 to 120 °C.

As to `O=C(O)CCC(=O)Nc1ccc(Nc2ccccc2)cc1`, the melting point lay within 175 to 176 °C.

`Cc1cc(-n2ccnc2)c2cccc(OCc3c(Cl)ccc(S(=O)(=O)N4CCC[C@H]4C(=O)NCC4CCNCC4)c3Cl)c2n1` yielded a melting point of 150 °C.

As to `CCOc1csc2ccc(C(=O)c3cnoc3C3CC3)c(SC)c12`, the melting point lay in the range of 166 to 168 °C.

`CCCc1c(OCC2Cc3cc(C(=O)CCC(=O)O)ccc3O2)ccc(C(C)=O)c1O` (stereo unspecified): the melting point came out at 80 °C.

On to `Cc1cc(C(=O)O)n(-c2ccc(F)cc2)n1`, for which the melting point worked out at 188 °C.

Consider `COc1cc(C=CC(=O)CCCO)cc(OC)c1`, for which the melting point lay in the range of 74 to 77 °C.

With `Cc1c(C)c2c(c(C)c1NC(=O)NCCO)C(c1ccc(C(C)C)cc1)CO2` (stereo unspecified), the melting point was 186 to 188 °C.

As for `CC1(C)CC(=O)Nc2c(CCN3CCN(c4noc5ccccc45)CC3)cc(F)cc21`, the melting point turned out to be 230 °C.

`CC(=O)c1cc2c(Br)cccc2n1S(=O)(=O)c1ccccc1` had a melting point of 142 to 146 °C.

Consider `CCOC(=O)c1ccc(C)nc1`, for which the melting point was 57 to 58 °C.

In turn, `CCC(C)Cc1nc(-c2cc[nH]n2)nc(OC)c1-c1c(F)cc(F)cc1F` (stereo unspecified) had a melting point of 124 °C.

`COCCN(CCOC)C(=O)c1ccc(C(=O)N2CCN(c3ncccc3NC(C)C)CC2)cc1` had a melting point of 82 to 83 °C.

Take `CC(CO)(CO)NS(=O)(=O)c1cc(NC(=O)c2cnn3c(C(F)(F)F)cc(-c4ccc(C(F)(F)F)cc4)nc23)c(Cl)s1`: the melting point is 201 °C.

As for `O=C(O)COc1ccc(CCNS(=O)(=O)c2ccccc2)cc1[N+](=O)[O-]`, the melting point lay in the range of 135 to 136 °C.

In turn, `NS(=O)(=O)c1c(Cl)cccc1Cn1cncn1` showed a melting point of 175 to 178 °C.

In turn, `CSC(=NCCSCc1ncccc1Cl)NC#N` returned a melting point of 120 to 121 °C.

On to `C#CCN(Cc1cc2c(=O)n(C)c(COS(C)(=O)=O)nc2cc1Cl)c1ccc(C(=O)OC(C)(C)C)cc1`, for which the melting point was 204 to 205 °C.

Regarding `CCN1CCc2cc(Nc3ncc(Cl)c(Nc4ccccc4C(=O)NC)n3)c(OC)cc2CC1`, the melting point lay in the range of 195 to 211 °C.

Take `CN1CCOC(C2=C(C#N)C(c3cccc(C#N)c3Br)c3c[nH]nc3N2)C1` (stereo unspecified): the melting point stood at 180 °C.

In the case of `COc1ccccc1-n1c(=O)[nH]c2c(C(N)=O)nc(Nc3ccc(Cn4ccnc4)cc3)nc21`, the melting point lay within 165 to 170 °C.

In turn, `COc1ccc2cc(CC(N)=O)ccc2c1` registered a melting point of 234 to 236 °C.

Compound `Cn1cncc1CC(=O)c1ccc(Br)cc1` showed a melting point of 109 °C.

For `Cc1ccc(C=Cc2ccccc2)cc1`, the melting point was found to be 117 °C.

Consider `Cc1cccc(SCc2c(CCN(C)C)[nH]c3ccccc23)c1`, for which the melting point was in the range of 75 to 78 °C.

Consider `CCc1nc(NC(=N)N)sc1-c1cccc([N+](=O)[O-])c1`, for which the melting point fell in the range of 149 to 151 °C.

With `Cc1ccc(-c2ccccc2C(=O)Nc2ccc(C(=O)N3C[C@@H]4CCCN4C(=S)c4ccccc43)cc2)cc1`, the melting point was in the range of 140 to 145 °C.

The compound `CC(=O)c1ccc(Cl)c2c1OC(F)(F)O2` showed a melting point of 40 °C.

`COc1ccc(C(=O)c2cc(Br)c(OC)cc2OC)c(F)c1` yielded a melting point of 114 to 115 °C.

With `COC(=O)C1(OC)CC(O)C(NC(C)=O)C(C(O)C(O)CO)O1` (stereo unspecified), the melting point was 161 to 167 °C.

With `CCOC(=O)Cn1cnc2c(Cl)nc(NC(=O)c3ccc(C4CCCCC4)cc3)nc21`, the melting point was in the range of 90 to 107 °C.

The compound `CCOC(=O)C=C(c1ccc(Br)s1)c1ccc(Br)s1` registered a melting point of 69 to 70 °C.

`CCOC=Nc1nc(-c2ccc(C3CCCCC3)cc2)cs1` gave a melting point of 84 to 85 °C.

`COC(=O)C1CC(C#N)(c2ccccc2)CCC1=O` (stereo unspecified) displayed a melting point of 75 to 80 °C.

Compound `CNC(=O)c1cnn2c(C(=O)N3CCNCC3)c(Cc3cccc(F)c3C)c(-c3ccccc3)c2c1` yielded a melting point of 208 to 210 °C.

In turn, `CC(=O)NCc1ccc(CN2CCN(c3ccc(F)cc3F)CC2)cc1` displayed a melting point of 94 to 95 °C.

In turn, `Cn1c(=O)cc(-c2cccc(Cl)c2)c2cc(C(O)c3cncn3Cc3ccc(C#N)cc3)ccc21` (stereo unspecified) gave a melting point of 150 °C.

The compound `CCOCCc1ccc(OCCN(C(=O)n2cncn2)c2ncnc3sc(CC)cc23)c(C)c1` showed a melting point of 129 to 131 °C.

As to `CN1CCN(CC(=O)N2c3ccccc3N(C)S(=O)(=O)c3ccccc32)CC1`, the melting point was in the range of 143 to 144 °C.

`COC(=O)C1=C(C)NC(C)=C(C(=O)OCCN2CCCC2=O)C1c1cccc([N+](=O)[O-])c1` (stereo unspecified) came in with a melting point of 112 to 114 °C.

Compound `COC(=O)c1cc(S(C)(=O)=O)ccc1OC` came in with a melting point of 113 to 115 °C.

Compound `Cc1cccc(NC(=O)NCC(=O)N2[C@@H](C(=O)OC(C)(C)C)C[C@@H](C(=O)N(C)C)[C@H]2c2ccccc2)c1` (racemic) gave a melting point of 199 °C.

`CC(C)(C)c1ccc(-c2ccc(C(=O)CCC(=O)O)cc2)cc1` gave a melting point of 172 to 174 °C.

On to `CC(SC1COC(c2ccc(C(=O)Nc3ccc(SC(F)(F)F)cc3)cc2)OC1)C(O)(Cn1cncn1)c1ccc(F)cc1F` (stereo unspecified), for which the melting point worked out at 95 °C.

For the compound `Cc1c(C)c2c(c(C)c1NCc1ccc(Cl)cc1)C(c1ccc(C(C)C)cc1)C(C)(C)O2` (stereo unspecified), the melting point lay within 93 to 94 °C.

In the case of `COc1ccc(-n2cnc3ccc(-c4nnc(SCc5cccc(F)c5)o4)cc32)cc1`, the melting point is 155 to 156 °C.

Regarding `O=C1NC(c2ccccc2)N(CCN2CCN(c3ccccc3)CC2)c2ccccc21` (stereo unspecified), the melting point was in the range of 142 to 144 °C.

`Cn1nnc2c3nc(O)c(O)nc3ccc21` registered a melting point of more than 300 °C.

With `CNC(=O)[C@@H]1C[C@@H](OCc2ccccc2)CN1S(=O)(=O)c1ccc(Cl)c(CBr)c1Cl`, the melting point was 62 to 64 °C.

For the compound `CCCc1c(OCc2cc(C=CC(=O)O)ccc2OC)ccc(C(C)=O)c1O`, the melting point was in the range of 245 to 246 °C.

For `O=C(c1ccc(-c2ccc(=O)[nH]n2)cc1)N1CCC[C@H]1CN1CCCC1`, the melting point was 62 to 66 °C.

`O=C(O)c1nc2cc(-n3ccnc3)c([N+](=O)[O-])cc2[nH]c1=O` came in with a melting point of more than 300 °C.

In the case of `COc1ccc(C(C#Cc2ccccc2)CC(N)=O)cc1OC1CCCC1` (racemic), the melting point fell in the range of 142 to 144 °C.

Compound `Cc1nnc(-c2ccc3occ(-c4ccc(SCF)cc4)c3c2)o1` displayed a melting point of 143 to 144 °C.

The compound `Cc1ccccc1-c1nc(-c2cccc(Cl)c2)n(C)n1` came in with a melting point of 86 to 88 °C.

In turn, `CN1NC(c2ccccc2Cl)=NN=C1c1ccccc1Cl` yielded a melting point of 115 to 116 °C.

Take `COC(=O)C(=O)c1ccc(OCCOc2ccc(C)cc2)cc1`: the melting point lay in the range of 105 to 107 °C.

`CC(=O)OC1N=C(c2ccccc2Cl)c2nc(Cl)ccc2-n2c1n[nH]c2=O` (stereo unspecified) registered a melting point of 232 to 236 °C.

Take `CCN1c2ncccc2C(=O)N(C)c2ccc(OC)nc21`: the melting point was in the range of 116 to 118 °C.

Compound `CC(C)(CC(=O)O)CC(=O)NC1(C(=O)NCCCCNc2ncccn2)Cc2ccccc2C1` gave a melting point of 70 to 83 °C.

The compound `Cc1cc2cc(O)ccc2[nH]1` gave a melting point of 124 to 126 °C.

The compound `COC(=O)C(=O)N(N=C(C#N)c1ccc(C#N)cc1)c1c(Cl)cc(C(F)(F)F)cc1Cl` came in with a melting point of 194 to 195 °C.

For the compound `COc1ccc(C)cc1-c1ccc(S(=O)(=O)N2c3ccccc3CC2C(=O)NCCOc2ccc(CC(=O)O)cc2)cc1` (stereo unspecified), the melting point was in the range of 85 to 88 °C.

The compound `CCc1cccc(NC(=O)c2cnn(C)c2N)c1` gave a melting point of 168 to 170 °C.

Consider `COC1(c2cc(OCc3ccc4c(ccc(=O)n4C)c3)cc(C(F)(F)F)c2)CCOCC1`, for which the melting point was determined as 103 °C.

For `CC(=O)NCCOc1cc(N)c(Cl)cc1C(=O)NCCN(C)C`, the melting point lay within 143 to 145 °C.

Compound `Cc1ccc(S(=O)(=O)NC(C)(C)C)o1` returned a melting point of 113 to 114 °C.

`Cn1nc(-c2c(F)cccc2F)nc1-c1ccc(OCc2ccc(C(F)(F)F)cc2)c(Cl)c1` returned a melting point of 171 to 177 °C.

Consider `CN1CCN(C2(CN(C)C(=O)c3ccc(Cl)c(Cl)c3)CCCCC2)CC1`, for which the melting point is 126 to 129 °C.

Compound `CCOC(=O)c1c(CCCCc2nccn2C)nc2cc(OC)c(OC)cc2c1-c1ccc(OC)c(OC)c1` showed a melting point of 180 to 183 °C.

For `CC(O)(c1ccc(Oc2ccccc2)cc1)c1cccnc1` (stereo unspecified), the melting point is 130 to 132 °C.

With `COc1ccc(C(NCCC2CCCCC2)c2cccc(Nc3c(N)c(=O)c3=O)c2)cc1` (stereo unspecified), the melting point was 168 to 171 °C.

Consider `COc1cc(OC)c(-c2cccs2)cc1C#CC(=O)c1cc(OC)c(OCC(=O)O)c(OC)c1`, for which the melting point is 192 to 194 °C.

In turn, `CC(C)(c1ccccc1)C(n1ccnc1)S(=O)c1ccc(Cl)cc1` (stereo unspecified) displayed a melting point of 125 to 127 °C.
